Assay results from patent US8202856B2 (Merck Serono SA, priority 2007, dated 2012).

Tests used:
S1P1 receptor = S1P1 receptor (Homo sapiens, UniProt P21453); assay: 35S-GTPγS binding, membranes from CHO cells expressing S1P1; assay type: biochemical; settings: CHO cell membranes expressing S1P1
Procedure, shortened: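 Membranes (1–10 μg) from CHO cells expressing the receptor were incubated with compound in 20 mM HEPES pH 7.4, 10 mM MgCl2, 140 mM NaCl, 1.7 μM GDP, saponin and 0.2% BSA. [35S]GTPγS (added at 1.5 nM) was then bound for 60 min at 30 °C. Membrane-bound radioactivity, averaged over triplicates, is expressed relative to S1P activation (n=2).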

S1P3 receptor = S1P3 receptor (Homo sapiens, UniProt Q99500); assay: 35S-GTPγS binding, membranes from CHO cells expressing S1P3; assay type: biochemical; settings: CHO cell membranes expressing S1P3
Procedure: Receptor binding assay: Membranes were prepared from CHO cells expressing S1P1 or S1P3 for use in ligand and 35S-GTPTS binding studies. Cells were suspended in 50 mM TRIS, pH 7.4, 2 mM EDTA, 250 mM Sucrose (buffer A) and 1× Complete protease inhibitor cocktail (Roche), and disrupted at 4° C. by nitrogen decompression using a cell disruption bomb (Parr Instrument). Following centrifugation at 1000 RPM for 10 min at 4° C., the supernatant was suspended in buffer A and centrifuged again at 19000 RPM for 60 min at 4° C. The pellet was then suspended in 10 mM HEPES, pH 7.4, 1 mM EDTA, 250 mM Sucrose (Buffer B), and 1× Complete EDTA-free protease inhibitor cocktail and homogenized using a potter. Membranes were flash frozen in liquid nitrogen and stored at −80° C. [33P]sphingosine 1-phosphate (3000 Ci/mmol; American Radiolabeled Chemicals, Inc.) was added to test compounds in DMSO. Membranes and WGA SPA beads (GE Healthcare) were added to give a final volume of 100 μl in 96-well plates with assay concentrations of […] [33P]sphingosine 1-phosphate (respectively for S1P1 or S1P3), 50 mM HEPES, pH 7.5, 5 mM MgCl2, 100 mM NaCl, 0.4% fatty acid-free BSA, 1-5 μg/well of proteins and 100 μg/well of WGA SPA beads. Binding was performed for 60 min at room temperature on a shaker and bound radioactivity was measured on a PerkinElmer 1450 MicroBeta counter. Specific binding was calculated by subtracting remaining radioactivity in the presence of 1000-fold excess of unlabeled S1P. Binding data were analyzed using the GraphPad Prism program.
Measurements of ^35S-GTPγS Binding: Membranes (1 to 10 μg protein) prepared as described above, were incubated in 96-well Scintiplates (PerkinElmer) with test compounds diluted in DMSO, in 180 μl of 20 mM HEPES, pH 7.4, 10 mM MgCl2, 2 μg/well Saponin, 0.2% fatty acid free BSA (Assay buffer), 140 mM NaCl and 1.7 μM GDP. The assay was initiated with the addition of 20 μl of 1.5 nM [35S]-GTPγS (1100 Ci/mmol; GE Healthcare) in assay buffer. After 60 min incubation at 30° C. on a shaker, plates were centrifuged for 10 min at 2000 RPM. Supernatant was discarded and membrane bound radioactivity was measured on a PerkinElmer 1450 MicroBeta counter. Triplicate samples were averaged and expressed as response relative to S1P activation in absence of compound (n=2).

Chain of S1P3 receptor (Q99500 whole entry): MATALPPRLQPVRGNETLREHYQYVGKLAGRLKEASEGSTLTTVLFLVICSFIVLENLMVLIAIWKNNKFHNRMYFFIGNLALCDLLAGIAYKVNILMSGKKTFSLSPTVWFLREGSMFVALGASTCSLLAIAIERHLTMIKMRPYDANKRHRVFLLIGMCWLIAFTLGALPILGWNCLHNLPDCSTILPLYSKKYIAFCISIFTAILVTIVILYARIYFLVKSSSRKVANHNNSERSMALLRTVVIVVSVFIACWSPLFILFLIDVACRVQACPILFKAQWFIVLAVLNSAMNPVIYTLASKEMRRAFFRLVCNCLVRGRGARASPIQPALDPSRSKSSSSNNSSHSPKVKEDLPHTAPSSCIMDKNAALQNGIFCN
Chain of S1P1 receptor (P21453 whole entry): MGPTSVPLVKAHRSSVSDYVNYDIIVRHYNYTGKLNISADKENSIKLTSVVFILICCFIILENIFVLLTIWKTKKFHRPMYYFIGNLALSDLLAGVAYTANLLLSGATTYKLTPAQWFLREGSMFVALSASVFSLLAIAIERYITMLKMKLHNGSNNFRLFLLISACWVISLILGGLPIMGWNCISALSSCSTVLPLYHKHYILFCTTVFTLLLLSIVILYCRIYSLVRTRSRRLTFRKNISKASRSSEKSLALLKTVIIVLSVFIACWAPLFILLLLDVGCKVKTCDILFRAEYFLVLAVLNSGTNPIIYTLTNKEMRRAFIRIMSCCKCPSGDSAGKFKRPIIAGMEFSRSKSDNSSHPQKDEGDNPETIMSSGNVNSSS

Row | EC50 (S1P1 receptor) | EC50 (S1P3 receptor) | Compound
1 | 160 nM | > 20 µM | Fc1ccccc1-n1nnc(-c2nc(-c3ccncc3)no2)c1-c1ccncc1 [Example 41, 4-[1-(2-fluorophenyl)-4-(3-pyridin-4-yl-1,2,4-oxadiazol-5-yl)-1H-1,2,3-triazol-5-yl]pyridine]
2 | 672 nM | > 20 µM | COCc1c(-c2nc(-c3cccnc3)no2)nnn1-c1ccccc1F [Example 47, 3-{5-[1-(2-fluorophenyl)-5-(methoxymethyl)-1H-1,2,3-triazol-4-yl]-1,2,4-oxadiazol-3-yl}pyridine]
